Reference: patent US5824698A, “Antibacterial dibenzimidazole derivatives” (priority 1994, dated 1998)
≈ marks a conversion by molar mass, not a printed value. Like-named read-outs stand apart in the source and are kept apart here.

Key:
Test in all cases: Antibacterial activity in vitro (MIC, standard agar method)
Assay type in all cases: cell-based
K. oxytoca 1082E = conditions: Klebsiella oxytoca, DST agar, 35° C., 20 hours, read-out: Minimum inhibitory concentration (MIC)
Procedure: (§1) The minimum inhibitory concentration (MIC) of the substances investigated against gram-positive and gram-negative strains was determined using standard agar methods. The compounds were dissolved in a small amount of dimethyl sulphoxide, diluted with water and incorporated into liquified DST agar at 50° C. The thus-produced agar plates were used immediately thereafter in the test. The test concentrations lay between 128 and 0.06 μg/ml. The bacterial inoculation solutions were prepared from pre-cultures grown overnight, diluted and applied to the agar surface using an inoculation device (Denley A400). The plates were incubated at 35° C. for 20 hours. The MIC was determined as the lowest concentration of substance which prevented a visible growth. A scarcely visible turbidity and the growth of less than 5 colonies were ignored. The determinations of the antibacterial activities (Tab. 1) were carried out not only for the free bases, but also for the hydrochloride salt of each compound. The same values were obtained within experimental error.

[1] = test system: E. coli K12 KEA-12 (GyrA); conditions: Escherichia coli, 20 h, read-out: Minimum inhibitory concentration (MIC)
Procedure: as §1

E. faecalis 6 = conditions: read-out: Minimum inhibitory concentration (MIC)
Procedure: as §1

E. coli AS-19 = conditions: Escherichia coli, AS19, DST agar, 35° C., 20 hours, read-out: Minimum inhibitory concentration (MIC)
Procedure: as §1

E. cloacae P 99 = conditions: Enterobacter cloacae, P99, 20 h, read-out: Minimum inhibitory concentration (MIC)
Procedure: as §1

Staph. aureus 887 = conditions: Staphylococcus aureus, DST agar, 35° C., 20 hours, read-out: Minimum inhibitory concentration (MIC)
Procedure: as §1

E. coli 25922 = conditions: read-out: Minimum inhibitory concentration (MIC)
Procedure: as §1

E. coli 1346 = conditions: Escherichia coli, DST agar, 35° C., 20 hours, read-out: Minimum inhibitory concentration (MIC)
Procedure: as §1

S. marcescens = conditions: Serratia marcescens, 20 h, read-out: Minimum inhibitory concentration (MIC)
Procedure: as §1

P. aeroguinosa 3351 = conditions: read-out: Minimum inhibitory concentration (MIC)
Procedure: as §1

P. aeroginosa BA = conditions: DST agar, 35° C., 20 hours, read-out: Minimum inhibitory concentration (MIC)
Procedure: as §1

P. aeruginosa 799/61 = conditions: Pseudomonas aeruginosa, 799/61, 20 h, read-out: Minimum inhibitory concentration (MIC)
Procedure: as §1

E. coli 1527 E = conditions: Escherichia coli, 1527E, 20 h, read-out: Minimum inhibitory concentration (MIC)
Procedure: as §1

E. coli DC2 = conditions: Escherichia coli; E. coli DC2; DST agar, 35° C., 20 hours; read-out: Minimum inhibitory concentration (MIC)
Procedure: as §1

Staph. aureus 25923 = conditions: Staphylococcus aureus, DST agar, 35° C., 20 hours, read-out: Minimum inhibitory concentration (MIC)
Procedure: as §1

Staph. haemolyticus 75 = conditions: Staphylococcus haemolyticus, DST agar, 35° C., 20 hours, read-out: Minimum inhibitory concentration (MIC)
Procedure: as §1

E. coli H560 = conditions: Escherichia coli, H560, 20 h, read-out: Minimum inhibitory concentration (MIC)
Procedure: as §1

B. subtilis ATCC 585369 = conditions: Bacillus subtilis, ATCC585369, DST agar, 35° C., 20 hours, read-out: Minimum inhibitory concentration (MIC)
Procedure: as §1

E. coli B = conditions: Escherichia coli, DST agar, 35° C., 20 hours, read-out: Minimum inhibitory concentration (MIC)
Procedure: as §1

S. aureus 101 = conditions: Staphylococcus aureus, DST agar, 35° C., 20 hours, read-out: Minimum inhibitory concentration (MIC)
Procedure: as §1

[2] = Escherichia coli, E. coli 25922, DST agar, 35° C., 20 hours
[3] = Enterococcus faecalis, E. faecalis 6, DST agar, 35° C., 20 hours

Question: `c1coc(-c2nc3ccc(-c4ccc5nc(-c6ccco6)[nH]c5c4)cc3[nH]2)c1` [Example 10, 2,2'-Difuran-2-yl-6,6'-dibenzimidazole] was tested. Which MIC (K. oxytoca 1082E) did it give?
Answer: Its MIC is over 128 µg/mL.

Question: And the MIC [1]?
Answer: The MIC was over 128 µg/mL.

Question: What about the MIC (E. faecalis 6; Enterococcus faecalis, 6, 20 h) of the same molecule?
Answer: Its MIC is over 128 µg/mL.

Question: What about the MIC (E. coli AS-19) of the same molecule?
Answer: Its MIC is 0.5 µg/mL (≈ 1.36 µM).

Question: And the MIC (E. cloacae P 99)?
Answer: The MIC was over 128 µg/mL.

Question: And the MIC (Staph. aureus 887)?
Answer: The MIC was 2 µg/mL (≈ 5.46 µM).

Question: What about the MIC (E. coli 25922; [2]) of the same molecule?
Answer: Its MIC is over 128 µg/mL.

Question: And the MIC (E. coli 1346)?
Answer: Its MIC is 8 µg/mL (≈ 21.8 µM).

Question: And the MIC (S. marcescens)?
Answer: Its MIC is over 128 µg/mL.

Question: What about the MIC (P. aeroguinosa 3351; P. aeroguinosa 3351, DST agar, 35° C., 20 hours) of the same molecule?
Answer: Its MIC is over 129 µg/mL.

Question: What about the MIC (P. aeroginosa BA) of the same molecule?
Answer: The MIC was over 128 µg/mL.

Question: And the MIC (P. aeruginosa 799/61)?
Answer: The MIC was over 128 µg/mL.

Question: And the MIC (E. coli 1527 E)?
Answer: Its MIC is over 128 µg/mL.

Question: And the MIC (E. coli DC2)?
Answer: The MIC was 1 µg/mL (≈ 2.73 µM).

Question: And the MIC (Staph. aureus 25923)?
Answer: Its MIC is 4 µg/mL (≈ 10.9 µM).

Question: And the MIC (Staph. haemolyticus 75)?
Answer: Its MIC is 0.25 µg/mL (≈ 0.682 µM).

Question: And the MIC (E. coli H560)?
Answer: Its MIC is over 128 µg/mL.

Question: With `COc1ccc(-c2nc3ccc(-c4ccc5nc(-c6ccc(OC)c(O)c6)[nH]c5c4)cc3[nH]2)cc1O` [Example 4, 5-[2'-(3-Hydroxy-4-methoxy-phenyl)-6,6'-dibenzimidazol-2-yl]-2-methoxy-phenol] as the molecule, how does the MIC (B. subtilis ATCC 585369) read?
Answer: The MIC was at most 0.25 µg/mL.

Question: And the MIC (K. oxytoca 1082E)?
Answer: The MIC was over 128 µg/mL.

Question: And the MIC [1]?
Answer: Its MIC is over 128 µg/mL.

Question: What about the MIC (E. coli B) of the same molecule?
Answer: Its MIC is at most 0.25 µg/mL.

Question: What about the MIC (E. faecalis 6; [3]) of the same molecule?
Answer: The MIC was 32 µg/mL (≈ 66.9 µM).

Question: What about the MIC (E. coli AS-19) of the same molecule?
Answer: Its MIC is 1 µg/mL (≈ 2.09 µM).

Question: What about the MIC (E. cloacae P 99) of the same molecule?
Answer: The MIC was over 128 µg/mL.

Question: And the MIC (Staph. aureus 887)?
Answer: Its MIC is 0.5 µg/mL (≈ 1.04 µM).

Question: What about the MIC (E. coli 25922; Escherichia coli, 25922, 20 h) of the same molecule?
Answer: Its MIC is over 128 µg/mL.

Question: What about the MIC (E. coli 1346) of the same molecule?
Answer: Its MIC is at most 0.25 µg/mL.

Question: And the MIC (S. marcescens)?
Answer: The MIC was over 128 µg/mL.

Question: What about the MIC (P. aeroguinosa 3351; 20 h) of the same molecule?
Answer: The MIC was over 128 µg/mL.

Question: What about the MIC (P. aeroginosa BA) of the same molecule?
Answer: Its MIC is over 128 µg/mL.

Question: And the MIC (P. aeruginosa 799/61)?
Answer: The MIC was over 128 µg/mL.

Question: And the MIC (E. coli 1527 E)?
Answer: The MIC was over 128 µg/mL.

Question: What about the MIC (E. coli DC2) of the same molecule?
Answer: The MIC was 2 µg/mL (≈ 4.18 µM).

Question: What about the MIC (Staph. aureus 25923) of the same molecule?
Answer: The MIC was 0.5 µg/mL (≈ 1.04 µM).

Question: And the MIC (Staph. haemolyticus 75)?
Answer: The MIC was at most 0.25 µg/mL.

Question: And the MIC (S. aureus 101)?
Answer: The MIC was at most 0.25 µg/mL.

Question: What about the MIC (E. coli H560) of the same molecule?
Answer: The MIC was over 128 µg/mL.

Question: Which MIC (B. subtilis ATCC 585369) does the source give for `Oc1cccc(-c2nc3ccc(-c4ccc5nc(-c6cccc(O)c6)[nH]c5c4)cc3[nH]2)c1` [Example 6, 3-[2'-(3-Hydroxy-phenyl)-6,6'-dibenzimidazol-2-yl]-phenol] here?
Answer: The MIC was 2 µg/mL (≈ 4.78 µM).

Question: What about the MIC (K. oxytoca 1082E) of the same molecule?
Answer: Its MIC is over 128 µg/mL.

Question: And the MIC [1]?
Answer: Its MIC is over 128 µg/mL.

Question: And the MIC (E. coli B)?
Answer: The MIC was 0.5 µg/mL (≈ 1.19 µM).

Question: And the MIC (E. faecalis 6; [3])?
Answer: Its MIC is 2 µg/mL (≈ 4.78 µM).

Question: And the MIC (E. coli AS-19)?
Answer: Its MIC is 1 µg/mL (≈ 2.39 µM).

Question: What about the MIC (E. cloacae P 99) of the same molecule?
Answer: The MIC was over 128 µg/mL.

Question: And the MIC (Staph. aureus 887)?
Answer: Its MIC is 2 µg/mL (≈ 4.78 µM).

Question: What about the MIC (E. coli 25922; [2]) of the same molecule?
Answer: Its MIC is over 128 µg/mL.

Question: And the MIC (E. coli 1346)?
Answer: The MIC was 2 µg/mL (≈ 4.78 µM).

Question: And the MIC (S. marcescens)?
Answer: Its MIC is over 128 µg/mL.

Question: What about the MIC (P. aeroguinosa 3351; 20 h) of the same molecule?
Answer: The MIC was over 128 µg/mL.

Question: And the MIC (P. aeroginosa BA)?
Answer: The MIC was over 128 µg/mL.

Question: What about the MIC (P. aeruginosa 799/61) of the same molecule?
Answer: The MIC was over 128 µg/mL.

Question: What about the MIC (E. coli 1527 E) of the same molecule?
Answer: The MIC was over 128 µg/mL.

Question: What about the MIC (E. coli DC2) of the same molecule?
Answer: Its MIC is 1 µg/mL (≈ 2.39 µM).

Question: What about the MIC (Staph. aureus 25923) of the same molecule?
Answer: The MIC was 2 µg/mL (≈ 4.78 µM).

Question: And the MIC (Staph. haemolyticus 75)?
Answer: Its MIC is 1 µg/mL (≈ 2.39 µM).

Question: And the MIC (S. aureus 101)?
Answer: Its MIC is 0.12 µg/mL (≈ 0.287 µM).

Question: What about the MIC (E. coli H560) of the same molecule?
Answer: The MIC was over 128 µg/mL.

Question: Which MIC (B. subtilis ATCC 585369) does the source give for `COc1cc(-c2nc3ccc(-c4ccc5nc(-c6ccc(O)c(OC)c6)[nH]c5c4)cc3[nH]2)ccc1O` [Example 3, 4-[2'-(4-Hydroxy-3-methoxy-phenyl)-6,6'-dibenzimidazol-2-yl]-2-methoxy-phenyl] here?
Answer: Its MIC is 32 µg/mL (≈ 66.9 µM).

Question: What about the MIC (K. oxytoca 1082E) of the same molecule?
Answer: The MIC was over 128 µg/mL.

Question: What about the MIC [1] of the same molecule?
Answer: The MIC was over 128 µg/mL.

Question: And the MIC (E. coli B)?
Answer: The MIC was 16 µg/mL (≈ 33.4 µM).

Question: What about the MIC (E. faecalis 6; [3]) of the same molecule?
Answer: The MIC was 4 µg/mL (≈ 8.36 µM).

Question: What about the MIC (E. coli AS-19) of the same molecule?
Answer: The MIC was over 128 µg/mL.

Question: And the MIC (E. cloacae P 99)?
Answer: The MIC was over 128 µg/mL.

Question: What about the MIC (Staph. aureus 887) of the same molecule?
Answer: Its MIC is 8 µg/mL (≈ 16.7 µM).

Question: And the MIC (E. coli 25922; Escherichia coli, 25922, 20 h)?
Answer: Its MIC is over 128 µg/mL.

Question: What about the MIC (E. coli 1346) of the same molecule?
Answer: Its MIC is 64 µg/mL (≈ 134 µM).

Question: And the MIC (S. marcescens)?
Answer: The MIC was over 128 µg/mL.

Question: What about the MIC (P. aeroguinosa 3351; 20 h) of the same molecule?
Answer: Its MIC is over 128 µg/mL.

Question: And the MIC (P. aeroginosa BA)?
Answer: Its MIC is over 128 µg/mL.

Question: And the MIC (P. aeruginosa 799/61)?
Answer: Its MIC is over 128 µg/mL.

Question: And the MIC (E. coli 1527 E)?
Answer: The MIC was over 128 µg/mL.

Question: And the MIC (E. coli DC2)?
Answer: The MIC was 8 µg/mL (≈ 16.7 µM).

Question: What about the MIC (Staph. aureus 25923) of the same molecule?
Answer: The MIC was 4 µg/mL (≈ 8.36 µM).

Question: And the MIC (Staph. haemolyticus 75)?
Answer: The MIC was 4 µg/mL (≈ 8.36 µM).

Question: And the MIC (E. coli H560)?
Answer: The MIC was over 128 µg/mL.
